# Molecular target: T1, LXRβ (Homo sapiens, UniProt P55055)
# T1 construct: Co-transfection expression plasmids, comprising full-length LXRα (pCMX-h LXRα or LXRβ (pCMX-hLXRβ)); expressed in transfected cells; host or cells: CV-1 African green monkey kidney cells, transient transfection with pCMX-hLXRβ
# T1 sequence (P55055 1-460): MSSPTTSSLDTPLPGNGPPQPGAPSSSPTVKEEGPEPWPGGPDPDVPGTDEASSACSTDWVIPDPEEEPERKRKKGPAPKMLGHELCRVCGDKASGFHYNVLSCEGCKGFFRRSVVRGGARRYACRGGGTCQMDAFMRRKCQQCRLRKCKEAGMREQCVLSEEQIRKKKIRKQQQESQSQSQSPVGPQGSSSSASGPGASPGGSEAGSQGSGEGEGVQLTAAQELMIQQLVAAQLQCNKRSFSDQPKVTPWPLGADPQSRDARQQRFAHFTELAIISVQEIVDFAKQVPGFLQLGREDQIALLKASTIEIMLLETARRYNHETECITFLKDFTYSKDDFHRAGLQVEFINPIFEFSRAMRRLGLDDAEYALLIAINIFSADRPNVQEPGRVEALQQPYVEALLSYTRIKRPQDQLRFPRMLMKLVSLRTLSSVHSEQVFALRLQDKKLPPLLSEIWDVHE
# T1 sequence (P19793 1-462 partner): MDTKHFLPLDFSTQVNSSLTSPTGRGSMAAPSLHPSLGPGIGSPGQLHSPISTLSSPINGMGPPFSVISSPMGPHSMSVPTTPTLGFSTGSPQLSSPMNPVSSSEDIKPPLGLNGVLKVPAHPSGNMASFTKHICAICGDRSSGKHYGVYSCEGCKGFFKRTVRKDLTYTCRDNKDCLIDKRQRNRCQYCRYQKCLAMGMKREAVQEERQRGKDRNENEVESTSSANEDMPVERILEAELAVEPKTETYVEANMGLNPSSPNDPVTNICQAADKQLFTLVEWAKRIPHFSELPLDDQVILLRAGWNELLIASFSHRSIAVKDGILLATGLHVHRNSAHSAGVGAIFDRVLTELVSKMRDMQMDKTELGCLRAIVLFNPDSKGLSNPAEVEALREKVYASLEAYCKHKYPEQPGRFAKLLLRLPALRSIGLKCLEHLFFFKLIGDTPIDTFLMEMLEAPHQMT
# Test: LXR/LXRE co-transfection assay (luciferase reporter) in CV-1 cells, LXRβ
# Assay type: cell-based
# Settings: for EC50: CV-1 cells transfected with pCMX-hLXRβ and LXREx1-Tk-Luciferase, 20 hours incubation, read-out: LXRbeta agonism EC50; for Emax: read-out: LXRbeta % EFFICACY
# Summary of the method: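 Luciferase read-out after 20 h compound treatment at 37 °C of CV-1 cells carrying transfected hLXRβ plus one-copy LXRE reporter, endogenous RXR partnering. Sigmoidal fit of 10-point half-log curves (4 wells each) gave EC50; % efficacy versus maximal response of the propionamide reference agonist.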
# [1] = CV-1 cells, relative to maximum response of high control N-(3-((4-fluorophenyl)-(naphthalene-2-sulfonyl)amino)propyl)-2,2-dimethylpropionamide
Compound,EC50,LXRbeta % EFFICACY [1],Emax [1]
Cc1nc(-c2ccc(OC(F)(F)F)cc2)c(-c2cc(-c3cccc(S(C)(=O)=O)c3)ccc2-n2cc(C)c(C(F)(F)F)n2)o1 [Example 440],51 nM,,62%
"Cn1nc(C(F)(F)C(N)=O)cc1-c1ccc(-c2cccc(S(C)(=O)=O)c2)cc1-n1nncc1-c1ccc(OC(F)(F)F)cc1 [Example 4, 2,2-difluoro-2-(1-methyl-5-(3′-(methylsulfonyl)-3-(5-(4-(trifluoromethoxy)phenyl)-1H-1,2,3-triazol-1-yl)biphenyl-4-yl)-1H-pyrazol-3-yl)acetamide]",1580 nM,,82%
"Cc1nc(-c2ccc(OC(F)(F)F)cc2)c(-c2cc(-c3cccc(S(C)(=O)=O)c3)ccc2-n2ccc(C(F)(F)F)n2)o1 [Example 309, 2-methyl-5-(3′-(methylsulfonyl)-4-(3-(trifluoromethyl)-1H-pyrazol-1-yl)-[1,1′-biphenyl]-3-yl)-4-(4-(trifluoromethoxy)phenyl)oxazole]",120 nM,,68%
"Cc1nc(-c2ccc(OC(F)(F)F)cc2)c(-c2cc(-c3cccc(C(C)(C)C(N)=O)c3)ccc2-n2ccc(CC#N)n2)o1 [Example 365, 2-(4′-(3-(cyanomethyl)-1H-pyrazol-1-yl)-3′-(2-methyl-4-(4-(trifluoromethoxy)phenyl)oxazol-5-yl)-[1,1′-biphenyl]-3-yl)-2-methylpropanamide]",424 nM,,76%
"Cn1nc(C(F)(F)CO)cc1-c1ccc(-c2cc(F)c(CO)c(S(C)(=O)=O)c2)cc1-n1nncc1-c1ccc(OC(F)(F)F)cc1 [Example 26, 2,2-difluoro-2-(5-(3′-fluoro-4′-(hydroxymethyl)-5′-(methylsulfonyl)-3-(5-(4-(trifluoromethoxy)phenyl)-1H-1,2,3-triazol-1-yl)-[1,1′-biphenyl]-4-yl)-1-methyl-1H-pyrazol-3-yl)ethanol]",903 nM,,81%
"Cn1nc(C(F)(F)C(C)(C)O)cc1-c1ccc(-c2cccc(S(C)(=O)=O)c2)cc1-n1nncc1-c1ccc(Cl)cc1 [Example 31, 1-(5-(3-(5-(4-chlorophenyl)-1H-1,2,3-triazol-1-yl)-3′-(methylsulfonyl)-[1,1′-biphenyl]-4-yl)-1-methyl-1H-pyrazol-3-yl)-1,1-difluoro-2-methylpropan-2-ol]",568 nM,,50%
"Cc1nc(-c2cc(-c3cc(F)c(CO)c(S(C)(=O)=O)c3)ccc2-n2nc(C(F)(F)F)cc2Cl)c(-c2ccc(OC(F)(F)F)cc2)o1 [Example 405, (4′-(5-chloro-3-(trifluoromethyl)-1H-pyrazol-1-yl)-3-fluoro-3′-(2-methyl-5-(4-(trifluoromethoxy)phenyl)oxazol-4-yl)-5-(methylsulfonyl)biphenyl-4-yl)methanol]",100 nM,,63%
"Cn1nc(C(=O)NC(C)(C)C)cc1-c1ccc(-c2cccc(S(C)(=O)=O)c2)cc1-n1nncc1-c1ccc(OC(F)(F)F)cc1 [Example 40, N-(1,1-dimethylethyl)-1-methyl-5-[3′-(methylsulfonyl)-3-(5-{4-[(trifluoromethyl)oxy]phenyl}-1H-1,2,3-triazol-1-yl)biphenyl-4-yl]-1H-pyrazole-3-carboxamide]",695 nM,,76%
"Cc1nc(-c2ccc(OC(F)(F)F)cc2)c(-c2cc(-c3cccc(C(C)(C)C(N)=O)c3)ccc2-n2ccc(C(F)(F)F)n2)o1 [Example 343, 2-methyl-2-(3′-(2-methyl-4-(4-(trifluoromethoxy)phenyl)oxazol-5-yl)-4′-(3-(trifluoromethyl)-1H-pyrazol-1-yl)biphenyl-3-yl) propanamide]",149 nM,,74%

# Next, values leading:
EC50,LXRbeta % EFFICACY [1],Emax [1],Compound
26 nM,99%,,"Cc1nc(-c2ccc3c(c2)OC(F)(F)O3)c(-c2cc(-c3cccc(S(C)(=O)=O)c3)ccc2-c2cc(C(C)C#N)nn2C)o1 (stereo not shown) [Example 116, 2-(5-(3-(4-(2,2-difluorobenzo[d][1,3]dioxol-5-yl)-2-methyloxazol-5-yl)-3′-(methylsulfonyl)-[1,1′-biphenyl]-4-yl)-1-methyl-1H-pyrazol-3-yl)propanenitrile]"
297 nM,,45%,"Cc1nc(-c2ccc3c(c2)OC(F)(F)O3)c(-c2cc(-c3cc(F)cc(S(C)(=O)=O)c3)ccc2-c2cc(C(F)(F)C(N)=O)nn2C)o1 [Example 45, 2-(5-(3-(4-(2,2-difluorobenzo[d][1,3]dioxol-5-yl)-2-methyloxazol-5-yl)-3′-fluoro-5′-(methylsulfonyl)biphenyl-4-yl)-1-methyl-1H-pyrazol-3-yl)-2,2-difluoroacetamide]"
19 nM,,65%,"Cc1nc(-c2ccc3c(c2)OC(F)(F)O3)c(-c2cc(-c3cc(F)c(CO)c(S(C)(=O)=O)c3)ccc2-c2cc(C(C)(F)F)nn2C)o1 [Example 95, (3′-(4-(2,2-difluorobenzo[d][1,3]dioxol-5-yl)-2-methyloxazol-5-yl)-4′-(3-(1,1-difluoroethyl)-1-methyl-1H-pyrazol-5-yl)-3-fluoro-5-(methylsulfonyl)biphenyl-4-yl)methanol]"
588 nM,,55%,"CNC(=O)C(F)(F)c1cc(-c2ccc(-c3cc(F)cc(S(C)(=O)=O)c3)cc2-c2oc(C)nc2-c2ccc3c(c2)OC(F)(F)O3)n(C)n1 [Example 85, 2-(5-(3-(4-(2,2-difluorobenzo[d][1,3]dioxol-5-yl)-2-methyloxazol-5-yl)-3′-fluoro-5′-(methylsulfonyl)biphenyl-4-yl)-1-methyl-1H-pyrazol-3-yl)-2,2-difluoro-N-methylacetamide]"
61 nM,,82%,"Cc1nc(-c2ccc(OC(F)(F)F)cc2)c(-c2cc(-c3cccc(S(C)(=O)=O)c3)ccc2-n2nc(C(F)(F)F)cc2C)o1 [Example 331, 2-methyl-5-(4-(5-methyl-3-(trifluoromethyl)-1H-pyrazol-1-yl)-3′-(methylsulfonyl)biphenyl-3-yl)-4-(4-(trifluoromethoxy)phenyl)oxazole]"
769 nM,,24%,Cc1nc(-c2ccc(OC(F)(F)F)cc2)c(-c2cc(-c3cccc(S(C)(=O)=O)c3)ccc2-c2cc(C(=O)NCC(C)(C)O)nn2C)o1 [Example 124]
178 nM,,77%,"Cc1nc(-c2ccc(Cl)cc2Cl)c(-c2cc(-c3cccc(S(C)(=O)=O)c3)ccc2-n2ccc(C(F)(F)F)n2)o1 [Example 337, 4-(2,4-dichlorophenyl)-2-methyl-5-(3′-(methylsulfonyl)-4-(3-(trifluoromethyl)-1H-pyrazol-1-yl)biphenyl-3-yl)oxazole]"
264 nM,,55%,"Cc1nc(-c2ccc(OC(F)(F)F)cc2)c(-c2cc(-c3cccc(S(C)(=O)=O)c3)ccc2-n2ccc(C(C)O)n2)o1 (single isomer, unassigned) [Example 367, 1-(1-(3-(2-methyl-4-(4-(trifluoromethoxy)phenyl)oxazol-5-yl)-3′-(methylsulfonyl)-[1,1′-biphenyl]-4-yl)-1H-pyrazol-3-yl)ethanol]"
71 nM,,63%,"Cc1nc(-c2ccc(Cl)c(OC(F)F)c2)c(-c2cc(-c3cc(F)c(CO)c(S(C)(=O)=O)c3)ccc2-n2ccc(C(F)(F)F)n2)o1 [Example 356, (3′-(4-(4-chloro-3-(difluoromethoxy)phenyl)-2-methyloxazol-5-yl)-3-fluoro-5-(methylsulfonyl)-4′-(3-(trifluoromethyl)-1H-pyrazol-1-yl)biphenyl-4-yl)methanol]"
279 nM,,26%,"Cc1nc(-c2ccc3c(c2)OC(F)(F)O3)c(-c2cc(-c3cc(F)c(CO)c(S(C)(=O)=O)c3)ccc2-c2cc(CO)nn2C)o1 [Example 99, (5-(3-(4-(2,2-difluorobenzo[d][1,3]dioxol-5-yl)-2-methyloxazol-5-yl)-3′-fluoro-4′-(hydroxymethyl)-5′-(methylsulfonyl)-[1,1′-biphenyl]-4-yl)-1-methyl-1H-pyrazol-3-yl)methanol]"
878 nM,,63%,"Cn1nc(C(F)(F)C(C)(C)O)cc1-c1ccc(-c2cc(F)c(CO)c(S(C)(=O)=O)c2)cc1-n1nncc1-c1ccc2c(c1)OC(F)(F)O2 [Example 34, 1-(5-(3-(5-(2,2-difluorobenzo[d][1,3]dioxol-5-yl)-1H-1,2,3-triazol-1-yl)-3′-fluoro-4′-(hydroxymethyl)-5′-(methylsulfonyl)-[1,1′-biphenyl]-4-yl)-1-methyl-1H-pyrazol-3-yl)-1,1-difluoro-2-methylpropan-2-ol]"

# Reference: US9751869B2, “LXR modulators” (BRISTOL-MYERS SQUIBB COMPANY, priority 2013, dated 2017)
